According to patent publication US20090074716A1, “METHOD FOR TREATING INFLUENZA VIRUS INFECTION” (priority 2006, published 2009):
“Also recorded” adds a separate entry of the source. Where a SMILES comes first, the peptide text is derived from it. The star is where a group is joined. Cbz = O=C(OCc1ccccc1)*

How the values were obtained:
[1] = tested on: avian influenza virus A/FPV/Bratislava/79 (H7N7); assay type: cell-based, human A549 lung epithelium carcinoma cells
IκBα [2] = test: TNFα-induced IκBα degradation (NF-κB activation), Western blot, HEK293 cells; assay type: cell-based; conditions: 1 h pre-incubation, 15 min TNFα
IκBα [3] = test: TNFα-induced IκBα degradation (NF-κB activation), Western blot, A549 cells; assay type: cell-based, human; conditions: 1 h pre-incubation, 15 min TNFα
[4] = after intravenous application; cited from earlier work
26S proteasome = conditions: cited from earlier work
[5] = tested on: avian influenza A virus A/FPV/Bratislava/79; set-up: species or system C57B1/6 mice; conditions: mouse, in vivo
[6] = tested on: avian influenza A virus A/FPV/Bratislava/79; assay type: cell-based, human lung epithelium cell line A549
TRAIL and FasL/CD95L = assay type: cell-based, human

Structure (SMILES): CC(C)C[C@H](NC(=O)[C@H](Cc1ccccc1)NC(=O)c1cnccn1)B(O)O [PS341, pyranosyl-phenyl-leucinyl-boric acid]
- reduction of the virus titre [1]: over 2 logarithmic levels
- prevention of TNFα-induced IκBα-degradation (IκBα [2]; 100 nM): not in a position to prevent
- prevention of TNFα-induced IκBα-degradation (IκBα [3]; 100 nM): not in a position to prevent
- biological availability [4]: biologically available

Structure (SMILES): CC(C)c1nc(CN(C)C(=O)N[C@H](C(=O)N[C@@H](Cc2ccccc2)C[C@H](O)[C@H](Cc2ccccc2)NC(=O)OCc2cncs2)C(C)C)cs1 [Ritonavir]
- concentration with unspecific effect on the proteasome (26S proteasome): approx. 10 micrograms

Structure (SMILES): CC(=O)N[C@@H](CSC(=O)[C@]1([C@@H](O)C(C)C)NC(=O)[C@H](C)[C@@H]1O)C(=O)O [lactacysteine]
- reduction of the virus titre [1]: reduction
- blocking of TNFα-induced IκBα-degradation (IκBα [2]; 1 μM): not effective enough to block
- blocking of TNFα-induced IκBα-degradation (IκBα [3]; 1 μM): not effective enough to block

Structure (SMILES): CC(C)C[C@@H](C=O)NC(=O)[C@H](CC(C)C)NC(=O)[C@H](CC(C)C)NC(=O)OCc1ccccc1 [MG132, N-carbobenzoxy-L-leucinyl-L-leucinyl-L-leucinal] (Cbz-Leu-Leu-Leu-aldehyde)
- survival rate of infected mice versus untreated controls [5]: significantly increased
- influenza virus replication [6]: blocks
- reduction of the virus titre [6]: up to 10 times
- virus-induced expression of FasL (TRAIL and FasL/CD95L): clearly reduced; also recorded: blocks
- virus-induced expression of TRAIL (TRAIL and FasL/CD95L): clearly reduced; also recorded: blocks
